We go through 16 compounds from ChEMBL document CHEMBL1134177, “Non-peptidic, non-prenylic inhibitors of the prenyl protein-specific protease Rce1” (Bioorg Med Chem Lett, 2001).

Some results are limits rather than exact numbers.

For test [1], the target named is T1, CAAX prenyl protease 2 (Homo sapiens) (UniProt Q9Y256).
T1 sequence (whole entry): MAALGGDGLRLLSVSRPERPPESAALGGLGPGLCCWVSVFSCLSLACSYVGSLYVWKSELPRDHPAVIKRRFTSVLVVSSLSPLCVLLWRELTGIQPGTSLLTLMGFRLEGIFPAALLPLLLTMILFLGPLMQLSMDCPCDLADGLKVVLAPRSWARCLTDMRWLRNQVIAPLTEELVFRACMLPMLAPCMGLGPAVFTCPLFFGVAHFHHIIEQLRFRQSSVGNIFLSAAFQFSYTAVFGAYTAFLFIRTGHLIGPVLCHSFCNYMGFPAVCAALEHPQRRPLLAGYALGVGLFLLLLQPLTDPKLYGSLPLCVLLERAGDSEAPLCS
The test is described as follows: Inhibition of recombinant prenyl protein-specific protease Rce1 in Sf9 cells at a concentration of 10 uM.

For test [2], the target named is Protein farnesyltransferase (Homo sapiens, UniProt P49354+P49356). The test is described as follows: Inhibitory activity against Farnesyltransferase. It is filed as protein-complex assay.
Test [3] has as its target T2, CAAX prenyl protease 2 (Homo sapiens, UniProt Q9Y256).
T2 sequence (Q9Y256 whole entry): T1 sequence (whole entry)
As to the kind of experiment: Inhibition of recombinant prenyl protein-specific protease Rcel expressed in Sf9 cells.

Test [4] deals with T2, CAAX prenyl protease 2. The test is described as follows: Inhibition of recombinant prenyl protein-specific protease Rce1 expressed in Sf9 cells […].

For the compound `CCCCCCCCCCCCCCCC(=O)NCCC(=O)Nc1cccc(S(=O)(=O)Nc2cccc(C)c2C)c1`, the inhibition in test [1] is 18%. Same read-out and setting: in the case of `CCCCCCCCCCCCCCCC(=O)NCC(=O)Nc1ccc(C(=O)N[C@@H](CCSC)C(=O)OC)cc1` it was 22%; in that of `CCCCCCCCCCCCCCCC(=O)NCCC(=O)Nc1ccc(C(=O)N[C@@H](CCSC)C(=O)OC)cc1`, 15%. Take `CCCCC/C=C\C/C=C\CCCCCCCC(=O)NCCC(=O)Nc1cccc(S(=O)(=O)Nc2cccc(C)c2C)c1`: the IC50 in test [2] came out at 3.8 µM; on CAAX prenyl protease 2 [3], 14 µM. On to `CCCCCCCCCCCCCCCCC(=O)NCC(=O)Nc1cccc(S(=O)(=O)Nc2cccc(C)c2C)c1`, for which the IC50 in test [2] turned out to be 3.5 µM; on CAAX prenyl protease 2 [4] it was 7 µM.

Take `CCCCCCCCCCCCCCCC(=O)NCCC(=O)Nc1cccc(S(=O)(=O)NCCc2c[nH]c3ccccc23)c1`: the inhibition in test [1] amounted to 23%.

Turning to `Cc1cccc(NS(=O)(=O)c2cccc(NC(=O)CCNC(=O)/C=C/c3ccc(-c4ccccc4)cc3)c2)c1C`, the IC50 amounted to 3.4 µM in test [2] and 7 µM on CAAX prenyl protease 2 [4]. Consider `CCCCCCCCCCCCCC(=O)NCCC(=O)Nc1cccc(S(=O)(=O)Nc2cccc(C)c2C)c1`, for which the inhibition in test [1] was below 5%. On the same count and under the same terms, in the case of `CCCCCCCCCCCCCCCC(=O)N(C)CCC(=O)Nc1cccc(S(=O)(=O)Nc2cccc(C)c2C)c1` it was 22%; in that of `CCCCCCCCCCCCCCCC(=O)NCCC(=O)Nc1cccc(S(=O)(=O)NCc2cccc3ccccc23)c1`, 20%. `CCCCCCCCCCCCCCCCCC(=O)NCCC(=O)Nc1cccc(S(=O)(=O)Nc2cccc(C)c2C)c1`: half-maximal inhibition in test [2] (IC50) was put at 2.5 µM. Besides, the inhibition in test [1] is below 5%. For `CCCCCCCCCCCCCCCC(=O)NCCC(=O)Nc1cccc(S(=O)(=O)Nc2cccc3ccccc23)c1`, the inhibition in test [1] was below 5%. Same read-out and setting: in the case of `CCCCCCCCCCCCCCCC(=O)NCCC(=O)Nc1cccc(C(=O)Nc2cccc(C)c2C)c1` it was 11%.

`CCCCCCCCCCCCCCC(=O)NCCCC(=O)Nc1cccc(S(=O)(=O)Nc2cccc(C)c2C)c1`: the inhibition in test [1] is 21%. Still for that read-out and setting: in the case of `CCCCCCCC/C=C\CCCCCCCC(=O)NCCC(=O)Nc1cccc(S(=O)(=O)Nc2cccc(C)c2C)c1` it was below 5%. Still for that read-out and setting: for `CCCCCCCCCCCCCCCC(=O)NCCC(=O)Nc1ccc(S(=O)(=O)N[C@@H](CCSC)C(=O)OC)cc1` the value was 28%.

A word on the inhibition: it is the change of the read-out against control, counted positive when it falls. A word on the IC50: it is the concentration needed to halve the response being measured.
